These results are taken from patent US20250143307A1 (priority 2021, published 2025).

A short description of series [1]: Surface charge determination by fluorescein test. Format: physicochemical. As to conditions: activated glass coverslips, spin-coated, baked at 110° C. for 60 minutes.
Experimental: Surface cationic density (N^+/cm^2) was calculated using UV/Vis absorbance of fluorescein. Fluorescein dye molecules (negatively charged) strongly bind to quaternary amino groups (positively charged) belonging to the polymeric chain. The stoichiometry of fluorescein binding is estimated at one dye molecule per four quaternary ammonium moieties. Treated plates were placed in a 1% fluorescein aqueous solution for five minutes, and then rinsed and sonicated in distilled water for several minutes in order to remove physisorbed fluorescein. Plates were rinsed with distilled water and immersed in 3 mL of CTAB 0.5% (aqueous solution of cetyltrimehylammonium bromide) along with PBS (Phosphate-Buffered Saline) (90% CTAB/10% PBS) and sonicated for 10 minutes. The optical density of chemisorbed fluorescein was measured at 501 nm wavelength.
The nature of series [2]: Manual friction / abrasion resistance of electrostatically sprayed coatings on glass slides. The format is physicochemical. The conditions noted are these: glass slide. As for the experimental part:
A glass slide was treated according to the following protocol: • 1) The surface was prepared by cleaning with isopropanol, and allowed to dry; • 2) The sprayer was held about 1 m from the target surface. • 3) The titanium anatase phase in aqueous solution (a mixture of peroxotitanic acid and peroxo-modified anatase sol 0.8%) was sprayed onto the surface using an electrostatic sprayer to form a coating on the target surface. • 4) The surface was allowed to dry for 5 to 10 minutes. • 5) The electrostatic sprayer was rinsed with distilled water. • 6) The biocidal polymer coating solution was added to the sprayer tank. • 7) The biocidal polymer coating solution was sprayed onto the surface at a 1 m distance away from the surface. • 8) The surface was examined to ensure it was not over-saturated with coating solution. • 9) The surface was allowed to dry for several hours.
A second glass slide was treated according to the protocol described above, except the surface was coated with the biocidal polymer solution first, followed by the titanium anatase phase.
In both methods, it was observed that the coating resisted repeated manual friction (over 20 cycles) using both wetted and dry paper towel, cotton-based cloth, and polyester/polypropylene wipes.
Treated and control glass slides were transferred to a 1% fluorescein solution for 10 minutes. […]

Molecules are shown by their SMILES.

As for `CCCCCCCCCCCCCCCCCC[N+](C)(C)CC(=O)c1ccc(O)c(O)c1`, the “Calculated surface cationic density” value in series [1] is given as 4×10^14 cations/cm^2.

In the case of `CCCCCCCCCCCCCCCCCC[N+](C)(C)CCC[Si](OC)(OC)OC.[Cl-]` [octadecyldimethyl(3-trimethoxysilylpropyl)ammonium chloride], in series [2] (sprayed with titanium anatase 0.8%, wetted and dry paper towel, cotton cloth, polyester/polypropylene wipes), the “resistance of coating to repeated manual friction” value is recorded as “did not resist manual friction”. Besides, the “abrasion resistance by fluorescein test after manual friction” value in series [2] (titanium anatase sprayed first, then the coating solution) was “did not resist minor abrasion”.
